Source: patent US20120028976A1, “PHARMACOKINETICALLY-BASED DOSING REGIMENTS OF A THROMBIN RECEPTOR ANTAGONIST” (priority 2008, published 2012)
Read-outs that look alike come from different tables or passages of the source.

How the values were obtained:
[1] = Rising single dose (RSD) study: pharmacokinetics of orally administered COMPOUND 1 in healthy subjects; format: in vivo, human; conditions: for Cmax / AUC(0-t) / Tmax: po; for time for which plasma concentrations were quantifiable: LLOQ 0.1 ng/ml
Excerpt: (§1) Phase I clinical studies were designed to evaluate the pharmacokinetics of COMPOUND 1 in healthy subjects after rising single and multiple doses. The study included a randomized, evaluator-blind, placebo-controlled, rising single dose (“RSD”) study and a rising multiple dose (“RSM”) study of orally administered COMPOUND 1 in healthy subjects.
(§2) In the single-dose study, 50 healthy males were enrolled into 6 sequential cohorts and randomized to receive in ascending dose manner placebo (n=2-3/group) or oral COMPOUND 1 (0.25, 1, 5, 10, 20 and 40 mg; n=5-6/group). In the multiple-dose study, 36 healthy subjects were enrolled into 3 sequential cohorts and randomized to receive in ascending-dose manner placebo (n=4/group) or oral COMPOUND 1(1, 3, and 5 mg OD in the morning for 28 days, n=8/group). A fourth cohort in the same study (n=12) was randomized to receive a single loading dose of COMPOUND 1, 10 mg (n=6) or 20 mg (n=6) on Day 1, followed by maintenance doses of 1 mg daily for 6 days. Measured and derived pharmacokinetic parameters were used to assess the pharmacokinetic profile. The doses were administered using appropriate combinations of the capsule formulations disclosed in Table 1.
Several observations were made from the data collected in the RSD Study. […] Tmax ranged from 0.5 to 2 hrs after dosing.
To estimate the terminal-phase half-life (t½) of COMPOUND 1, samples were collected from subjects in the 20 mg and 40 mg dose groups for up to 64 days after dosing. […] Plasma concentrations were quantifiable for up to 53 days in subjects administered 20 mg and up to 62 days in subjects administered 40 mg.

clinical = conditions: human, in vivo
Excerpt: as §1, §2
Variability was low to moderate.
The RMD study also allowed evaluation of COMPOUND 1 accumulation. Mean accumulation index (R) values ranged from 4.72 to 6.37. The effective half-lives determined from R values ranged from 59.8 to 141 hrs.

[2] = single oral dose 40 mg, maximum individual value
[3] = single oral dose 40 mg, minimum individual value

CCOC(=O)N[C@@H]1CC[C@@H]2[C@@H](C1)C[C@H]1C(=O)O[C@H](C)[C@H]1[C@H]2/C=C/c1ccc(-c2cccc(F)c2)cn1 [COMPOUND 1]
time to maximal plasma levels ([1]; across all doses in both studies (single and multiple oral dosing)): 60 to 90 min | half-life ([1]; male, human, plasma, oral, subjects of the 20 mg and 40 mg single dose groups, samples up to 64 days after dosing, read-out: apparent terminal-phase half-life (t1/2)): 5.25 to 11.2 days | Cmax ([1]; male, human, plasma, 0.25 mg, single oral dose 0.25 mg, n=6, healthy males, plasma, mean (CV %), read-out: Cmax): 2.23 ng/mL | AUC(0-t) ([1]; male, human, plasma, 0.25 mg, single oral dose 0.25 mg, n=6, mean (CV %), read-out: AUC(0-72 hr)): 33.7 ng·h/mL | Tmax ([1]; male, human, plasma, 0.25 mg, single oral dose 0.25 mg, n=6, value (range), read-out: Tmax): 1 h | AUC(0-t) ([1]; male, human, plasma, 1 mg, single oral dose 1 mg, n=6, mean (CV %), read-out: AUC(0-72 hr)): 142 ng·h/mL | Cmax ([1]; male, human, plasma, 1 mg, single oral dose 1 mg, n=6, mean (CV %), read-out: Cmax): 9.29 ng/mL | Tmax ([1]; male, human, plasma, 1 mg, single oral dose 1 mg, n=6, value (range), read-out: Tmax): 1.25 h | AUC(0-t) ([1]; male, human, plasma, 5 mg, single oral dose 5 mg, n=6, mean (CV %), read-out: AUC(0-72 hr)): 740 ng·h/mL | Cmax ([1]; male, human, plasma, 5 mg, single oral dose 5 mg, n=6, mean (CV %), read-out: Cmax): 51.4 ng/mL | Tmax ([1]; male, human, plasma, 5 mg, single oral dose 5 mg, n=6, value (range), read-out: Tmax): 0.75 h | AUC(0-t) ([1]; male, human, plasma, 10 mg, single oral dose 10 mg, n=6, mean (CV %), read-out: AUC(0-72 hr)): 1510 ng·h/mL | Cmax ([1]; male, human, plasma, 10 mg, single oral dose 10 mg, n=6, mean (CV %), read-out: Cmax): 99.2 ng/mL | Tmax ([1]; male, human, plasma, 10 mg, single oral dose 10 mg, n=6, value (range), read-out: Tmax): 1.5 h | AUC(0-t) ([1]; male, human, plasma, 20 mg, single oral dose 20 mg, n=5, mean (CV %), read-out: AUC(0-72 hr)): 3350 ng·h/mL | Cmax ([1]; male, human, plasma, 20 mg, single oral dose 20 mg, n=5, mean (CV %), read-out: Cmax): 183 ng/mL | Tmax ([1]; male, human, plasma, 20 mg, single oral dose 20 mg, n=5, value (range), read-out: Tmax): 1.5 h | Tmax ([1]; male, human, plasma, 40 mg, loading dose 40 mg, single oral (Table 3), read-out: Tmax range): 0.5 to 1.5 h | AUC(0-t) ([1]; male, human, plasma, 40 mg, loading dose 40 mg, single oral, range of individual values (Table 3), read-out: AUC(0-72 hr) range): 4740 to 7510 ng·h/mL | Cmax ([1]; male, human, plasma, 40 mg, loading dose 40 mg, single oral, range of individual values (Table 3), read-out: Cmax range): 238 to 511 ng/mL | AUC(0-t) ([1]; male, human, plasma, 40 mg, single oral dose 40 mg, n=5, mean (CV %), read-out: AUC(0-72 hr), Mean): ~6030 ng·h/mL | Cmax ([1]; male, human, plasma, 40 mg, single oral dose 40 mg, n=5, mean (CV %), read-out: Cmax, Mean): ~376 ng/mL | Tmax ([1]; male, human, plasma, 40 mg, single oral dose 40 mg, n=5, value (range), read-out: Tmax, Mean): 1.5 h | Tmax ([1]; male, human, plasma, 40 mg, single oral dose 40 mg, Tmax corresponding to maximum individual Cmax, read-out: Tmax, Max): 1.5 h | Tmax ([1]; male, human, plasma, 40 mg, single oral dose 40 mg, Tmax corresponding to minimum individual Cmax, read-out: Tmax): 0.5 h | Tmax ([1]; male, human, plasma, single oral doses 0.25 to 40 mg, all dose groups, read-out: Tmax range after dosing): 0.5 to 2 h | dose relation of exposure ([1]; single doses up to 40 mg, FIG. 2): dose related | time for which plasma concentrations were quantifiable ([1]; single oral dose 20 mg): up to 53 days | time for which plasma concentrations were quantifiable ([1]; single oral dose 40 mg): up to 62 days | AUC(0-72 hr), Max [1, 2]: 7508 ng·h/mL | Cmax, Max [1, 2]: 511 ng/mL | AUC(0-72 hr), Min [1, 3]: 4745 ng·h/mL | Cmax, Min [1, 3]: 238 ng/mL | coefficient of variability (CV) for AUC(0-24 h) (clinical): 14-34% | dose relation of exposure (clinical): increased in a dose-related manner | AUC(0-24 hr) Mean (clinical; 1 mg): 58.5 ng·h/mL | Cmax Mean (clinical; 1 mg): 9.78 ng/mL | AUC(0-24 hr) Mean (clinical; 3 mg): 225 ng·h/mL | Cmax (clinical; 3 mg, Cmax Mean): 38.2 ng/mL | Tmax (clinical; 3 mg, Tmax Median): 1 h | AUC(0-24 hr) Mean (clinical; 5 mg): 315 ng·h/mL | Cmax Mean (clinical; 5 mg): 56.4 ng/mL | effective half-lives determined from R values (clinical; 5 mg): 60 to 141 h | Tmax (clinical; 5 mg, Tmax Median): 1 h | half-life (clinical; 5 mg, effective half-lives determined from R values): 2.49 to 5.88 days | Mean accumulation index (R) values, range over dose groups (clinical; 28 days): 4.72-6.37 | half-life (clinical; Mean terminal-phase half-life (t1/2), range over dose groups): 7.21 to 11.2 days | Tmax (clinical; Median Tmax values, range over dose groups): 1 to 1.5 h | Tmax (clinical; Tmax Median): 1 h
